Source: the supplement of paper PMC10627819

Experiments:
B. subtilis 168 [1] = assay: fitness (endpoint OD595 vs no drug) (fraction); higher = more growth
In short: (§1)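 With the first reading as background, OD595 was measured every 30 min for 14 h in 384-well plates kept at 37 °C and inoculated at OD595 0.01. TSB, LB Lennox or CY was the medium. Fitness is the optical density at the transition into stationary phase divided by the robust mean of no-drug control wells, with a cap of 1.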

S. pneumoniae D39V [2] = assay: as above
In short: as §1

S. aureus DSM 20231 = assay: Bliss interaction score (quartile over a dose matrix) (fitness difference); higher = more antagonism (negative = synergy)
In short: (§2)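 Quartiles summarise the Bliss score over technical, biological and donor/recipient replicates, where the score is observed minus expected fitness under a product model. Expected fitness uses single-drug values inferred from combination data. Fitness is OD595 at entry into stationary phase over the plate's robust no-drug mean, capped at 1.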

S. aureus Newman = assay: as above
In short: as §2

B. subtilis 168 [3] = assay: as above
In short: as §2

S. pneumoniae D39V [4] = assay: as above
In short: as §2
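Wherever Bliss interaction score (quartile over a dose matrix) is given: first quartile when negative (synergy) and third quartile when positive (antagonism).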

C[C@H]1c2cccc(O)c2C(=O)C2=C(O)[C@]3(O)C(=O)C(C(N)=O)=C(O)[C@@H](N(C)C)[C@@H]3[C@@H](O)[C@@H]21 [Doxycycline] + COc1c(N2C[C@@H]3CCCN[C@@H]3C2)c(F)cc2c(=O)c(C(=O)O)cn(C3CC3)c12 [Moxifloxacin]
Settings | fitness
B. subtilis 168 [1], first compound 0.02 µg/mL, partner 0.0312 µg/mL | 0.0633
B. subtilis 168 [1], first compound 0.02 µg/mL, partner 0.0625 µg/mL | 0.0369
B. subtilis 168 [1], first compound 0.02 µg/mL, partner 0.125 µg/mL | 0.0526
B. subtilis 168 [1], first compound 0.02 µg/mL, partner 2 µg/mL | 0.0252
B. subtilis 168 [1], first compound 0.02 µg/mL, partner 4 µg/mL | 0.0301
B. subtilis 168 [1], first compound 0.02 µg/mL, partner 8 µg/mL | 0.061
B. subtilis 168 [1], first compound 0.04 µg/mL, partner 0.0312 µg/mL | 0.0435
B. subtilis 168 [1], first compound 0.04 µg/mL, partner 0.0625 µg/mL | 0.0347
B. subtilis 168 [1], first compound 0.04 µg/mL, partner 0.125 µg/mL | 0.0489
B. subtilis 168 [1], first compound 0.04 µg/mL, partner 2 µg/mL | 0.0204
B. subtilis 168 [1], first compound 0.04 µg/mL, partner 4 µg/mL | 0.013
B. subtilis 168 [1], first compound 0.04 µg/mL, partner 8 µg/mL | 0.0253
B. subtilis 168 [1], first compound 0.08 µg/mL, partner 0.0625 µg/mL | 0.03
B. subtilis 168 [1], first compound 0.08 µg/mL, partner 0.125 µg/mL | 0.0215
B. subtilis 168 [1], first compound 0.08 µg/mL, partner 2 µg/mL | 0.0234
B. subtilis 168 [1], first compound 0.08 µg/mL, partner 4 µg/mL | 0.0247
B. subtilis 168 [1], first compound 0.08 µg/mL, partner 8 µg/mL | 0.0278
S. pneumoniae D39V [2], first compound 0.0155 µg/mL, partner 0.0037 µg/mL | 0.791
S. pneumoniae D39V [2], first compound 0.0155 µg/mL, partner 0.005 µg/mL | 0.918
S. pneumoniae D39V [2], first compound 0.0155 µg/mL, partner 0.0075 µg/mL | 0.838
S. pneumoniae D39V [2], first compound 0.0155 µg/mL, partner 0.01 µg/mL | 0.919
S. pneumoniae D39V [2], first compound 0.0155 µg/mL, partner 0.015 µg/mL | 0.857
S. pneumoniae D39V [2], first compound 0.0155 µg/mL, partner 0.02 µg/mL | 0.834
S. pneumoniae D39V [2], first compound 0.031 µg/mL, partner 0.005 µg/mL | 0.886
S. pneumoniae D39V [2], first compound 0.031 µg/mL, partner 0.01 µg/mL | 0.896
S. pneumoniae D39V [2], first compound 0.031 µg/mL, partner 0.02 µg/mL | 0.783
S. pneumoniae D39V [2], first compound 0.062 µg/mL, partner 0.005 µg/mL | 0.807
S. pneumoniae D39V [2], first compound 0.062 µg/mL, partner 0.01 µg/mL | 0.856
S. pneumoniae D39V [2], first compound 0.062 µg/mL, partner 0.02 µg/mL | 0.807

fitness, S. pneumoniae D39V [2], one replicate
Settings | first compound 0.003875 µg/mL | first compound 0.00775 µg/mL | first compound 0.031 µg/mL | first compound 0.062 µg/mL
partner 0.0037 µg/mL | 0.939 | 0.881 | 0.692 | 0.352
partner 0.0075 µg/mL | 0.952 | 0.894 | 0.806 | 0.679
partner 0.015 µg/mL | 0.909 | 0.874 | 0.721 | 0.59

Settings | Bliss interaction score
B. subtilis 168 [3] | 0.0361
S. aureus DSM 20231 | 0.0965
S. aureus Newman | 0.036
S. pneumoniae D39V [4] | -0.0559
